Results reported in ChEMBL document CHEMBL4330132, “5-Keto-3-cyano-2,4-diaminothiophenes as selective maternal embryonic leucine zipper kinase inhibitors” (Bioorg Med Chem Lett, 2019).

Columns and labels:
[1] = biological target: Protein kinase C theta type (Homo sapiens) (UniProt Q04759); test: Binding affinity to wild-type human partial length PRKCQ (L350 to S706 residues) expressed in bacterial expression system assessed as residual binding level at 1 uM by Kinomescan method relative to control
[2] = biological target: Mitogen-activated protein kinase kinase kinase 11 (Homo sapiens) (UniProt Q16584); test: Binding affinity to wild-type human partial length MLK3 (I77 to W399 residues) expressed in bacterial expression system assessed as residual binding level at 1 uM by Kinomescan method relative to control
[3] = biological target: Serine/threonine-protein kinase PAK 6 (Homo sapiens) (UniProt Q9NQU5); test: Binding affinity to wild-type human partial length PAK6 (N298 to C681 residues) expressed in bacterial expression system assessed as residual binding level at 1 uM by Kinomescan method relative to control
Serine/threonine-protein kinase PAK 6 (Homo sapiens), sequence (Q9NQU5 whole entry, looked up, the tested form may be a part): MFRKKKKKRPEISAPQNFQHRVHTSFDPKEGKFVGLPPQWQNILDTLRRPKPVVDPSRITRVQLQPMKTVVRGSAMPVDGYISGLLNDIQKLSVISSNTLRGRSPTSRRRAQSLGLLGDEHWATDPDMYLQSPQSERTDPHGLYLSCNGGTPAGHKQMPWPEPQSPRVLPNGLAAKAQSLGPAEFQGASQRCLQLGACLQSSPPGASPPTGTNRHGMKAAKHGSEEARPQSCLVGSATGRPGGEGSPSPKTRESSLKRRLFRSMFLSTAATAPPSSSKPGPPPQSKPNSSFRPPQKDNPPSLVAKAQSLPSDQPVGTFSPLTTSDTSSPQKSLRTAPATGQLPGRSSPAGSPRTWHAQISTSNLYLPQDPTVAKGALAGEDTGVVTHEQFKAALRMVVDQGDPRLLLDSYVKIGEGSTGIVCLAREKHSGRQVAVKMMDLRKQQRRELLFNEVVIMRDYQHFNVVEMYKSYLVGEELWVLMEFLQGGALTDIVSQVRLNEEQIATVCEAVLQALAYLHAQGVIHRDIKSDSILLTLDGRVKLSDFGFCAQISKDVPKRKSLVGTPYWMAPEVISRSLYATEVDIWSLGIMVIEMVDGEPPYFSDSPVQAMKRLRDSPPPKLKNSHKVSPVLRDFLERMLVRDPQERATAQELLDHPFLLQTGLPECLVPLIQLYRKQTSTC

[4] = tested on: Leucine-rich repeat serine/threonine-protein kinase 2 (Homo sapiens), Q5S007 [G2019S]; test: Binding affinity to human partial length LRRK2 G2019S mutant (H970 to E2527 residues) expressed in mammalian expression system assessed as residual binding level at 1 uM by Kinomescan method relative to control
[5] = biological target: Mitogen-activated protein kinase 10 (Homo sapiens) (UniProt P53779); test: Binding affinity to wild-type human partial length JNK3 (V28 to Q422 residues) expressed in mammalian expression system assessed as residual binding level at 1 uM by Kinomescan method relative to control
[6] = biological target: Mitogen-activated protein kinase 8 (Homo sapiens) (UniProt P45983); test: Binding affinity to wild-type human full length JNK1 (M1 to Q384 residues) expressed in mammalian expression system assessed as residual binding level at 1 uM by Kinomescan method relative to control
[7] = biological target: Phosphatidylinositol 5-phosphate 4-kinase type-2 gamma (Homo sapiens) (UniProt Q8TBX8); test: Binding affinity to wild-type human partial length PIP5K2C (M1 to A421 residues) expressed in mammalian expression system assessed as residual binding level at 1 uM by Kinomescan method relative to control
Phosphatidylinositol 5-phosphate 4-kinase type-2 gamma (Homo sapiens), sequence (Q8TBX8 whole entry, the tested form may be a part): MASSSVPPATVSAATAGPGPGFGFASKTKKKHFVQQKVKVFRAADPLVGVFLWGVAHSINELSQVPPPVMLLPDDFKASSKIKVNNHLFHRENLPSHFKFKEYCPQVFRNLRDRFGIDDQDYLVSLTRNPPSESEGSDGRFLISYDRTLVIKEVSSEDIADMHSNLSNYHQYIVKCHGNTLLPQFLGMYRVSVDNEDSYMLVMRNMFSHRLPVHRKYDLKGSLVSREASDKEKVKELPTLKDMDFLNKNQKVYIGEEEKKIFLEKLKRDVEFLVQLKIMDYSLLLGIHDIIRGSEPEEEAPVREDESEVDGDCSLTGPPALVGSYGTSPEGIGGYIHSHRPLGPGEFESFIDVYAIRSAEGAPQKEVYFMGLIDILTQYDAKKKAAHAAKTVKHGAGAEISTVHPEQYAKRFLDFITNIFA

[8] = biological target: Serine/threonine-protein kinase LATS1 (Homo sapiens) (UniProt O95835); test: Binding affinity to wild-type human partial length LATS1 (Q678 to V1130 residues) expressed in bacterial expression system assessed as residual binding level at 1 uM by Kinomescan method relative to control
Serine/threonine-protein kinase LATS1 (Homo sapiens), sequence (O95835 whole entry, the tested form may be a part): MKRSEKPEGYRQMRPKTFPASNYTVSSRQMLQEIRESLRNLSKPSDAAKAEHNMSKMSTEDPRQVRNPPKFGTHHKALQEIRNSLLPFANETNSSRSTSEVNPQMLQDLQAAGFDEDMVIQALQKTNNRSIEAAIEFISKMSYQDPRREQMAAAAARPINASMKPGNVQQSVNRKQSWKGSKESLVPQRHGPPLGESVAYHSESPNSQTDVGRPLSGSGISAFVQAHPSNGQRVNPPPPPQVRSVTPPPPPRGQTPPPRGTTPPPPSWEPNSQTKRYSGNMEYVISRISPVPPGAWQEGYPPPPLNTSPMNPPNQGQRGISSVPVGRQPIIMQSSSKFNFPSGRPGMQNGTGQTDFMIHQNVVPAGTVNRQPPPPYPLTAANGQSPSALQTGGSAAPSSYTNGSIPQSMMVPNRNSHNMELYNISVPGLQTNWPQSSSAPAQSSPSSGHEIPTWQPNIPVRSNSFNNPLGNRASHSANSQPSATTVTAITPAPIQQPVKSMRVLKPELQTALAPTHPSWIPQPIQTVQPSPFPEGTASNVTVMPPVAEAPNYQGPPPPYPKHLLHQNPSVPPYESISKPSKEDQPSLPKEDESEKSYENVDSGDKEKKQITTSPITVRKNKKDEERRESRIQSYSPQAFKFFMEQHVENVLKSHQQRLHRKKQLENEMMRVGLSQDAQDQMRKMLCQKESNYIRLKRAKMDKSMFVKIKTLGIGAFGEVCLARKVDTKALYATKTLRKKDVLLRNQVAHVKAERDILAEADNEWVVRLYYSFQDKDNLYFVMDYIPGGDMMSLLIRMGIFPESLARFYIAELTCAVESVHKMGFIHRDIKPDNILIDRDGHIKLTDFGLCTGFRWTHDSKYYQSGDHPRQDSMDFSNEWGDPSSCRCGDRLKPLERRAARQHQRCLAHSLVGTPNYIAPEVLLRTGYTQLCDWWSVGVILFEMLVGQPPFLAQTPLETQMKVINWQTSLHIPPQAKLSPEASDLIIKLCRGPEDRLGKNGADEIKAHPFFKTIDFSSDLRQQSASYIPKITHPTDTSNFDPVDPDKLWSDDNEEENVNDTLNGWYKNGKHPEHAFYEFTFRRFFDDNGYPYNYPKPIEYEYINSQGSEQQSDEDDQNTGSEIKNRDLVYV

[9] = tested on: Epidermal growth factor receptor (Homo sapiens), P00533 [UNDEFINED MUTATION]; test: Binding affinity to human partial length EGFR L747-E749del/A750P mutant expressed in bacterial expression system assessed as residual binding level at 1 uM by Kinomescan method relative to control
[10] = biological target: Mitogen-activated protein kinase kinase kinase 10 (Homo sapiens) (UniProt Q02779); test: Binding affinity to wild-type human partial length MLK2 (V52 to W380 residues) expressed in bacterial expression system assessed as residual binding level at 1 uM by Kinomescan method relative to control
Mitogen-activated protein kinase kinase kinase 10 (Homo sapiens), sequence (Q02779 whole entry, looked up, the tested form may be a part): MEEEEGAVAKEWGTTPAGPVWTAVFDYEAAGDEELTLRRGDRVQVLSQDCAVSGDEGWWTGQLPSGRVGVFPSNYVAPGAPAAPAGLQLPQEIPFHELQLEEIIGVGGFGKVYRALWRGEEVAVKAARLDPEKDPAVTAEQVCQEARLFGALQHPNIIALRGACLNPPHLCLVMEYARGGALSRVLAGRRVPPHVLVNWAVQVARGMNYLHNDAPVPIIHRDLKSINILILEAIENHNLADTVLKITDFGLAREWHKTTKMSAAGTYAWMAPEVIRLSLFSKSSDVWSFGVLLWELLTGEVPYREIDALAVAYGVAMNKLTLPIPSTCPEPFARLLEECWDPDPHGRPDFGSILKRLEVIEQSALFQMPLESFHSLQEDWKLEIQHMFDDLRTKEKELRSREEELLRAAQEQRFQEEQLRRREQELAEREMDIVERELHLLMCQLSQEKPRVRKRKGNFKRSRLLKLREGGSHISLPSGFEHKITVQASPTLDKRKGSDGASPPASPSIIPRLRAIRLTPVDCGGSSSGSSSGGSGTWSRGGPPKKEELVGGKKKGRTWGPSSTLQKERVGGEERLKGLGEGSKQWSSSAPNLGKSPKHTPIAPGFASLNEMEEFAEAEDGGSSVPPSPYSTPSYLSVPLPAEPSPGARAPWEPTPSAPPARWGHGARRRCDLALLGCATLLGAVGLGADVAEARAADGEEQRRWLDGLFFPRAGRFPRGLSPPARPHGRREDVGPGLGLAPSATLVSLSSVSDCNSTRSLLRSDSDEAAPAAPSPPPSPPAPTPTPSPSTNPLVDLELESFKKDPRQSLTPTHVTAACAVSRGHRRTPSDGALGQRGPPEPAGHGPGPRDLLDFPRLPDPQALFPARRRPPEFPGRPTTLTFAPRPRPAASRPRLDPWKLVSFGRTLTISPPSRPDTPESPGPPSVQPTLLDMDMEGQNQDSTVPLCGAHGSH

[11] = biological target: Ribosomal protein S6 kinase alpha-5 (Homo sapiens) (UniProt O75582); test: Binding affinity to wild-type human partial length C-terminal RPS6KA5 kinase domain 2 (V390 to T718 residues) expressed in bacterial expression system assessed as residual binding level at 1 uM by Kinomescan method relative to control
Ribosomal protein S6 kinase alpha-5 (Homo sapiens), sequence (O75582 whole entry, looked up, the tested form may be a part): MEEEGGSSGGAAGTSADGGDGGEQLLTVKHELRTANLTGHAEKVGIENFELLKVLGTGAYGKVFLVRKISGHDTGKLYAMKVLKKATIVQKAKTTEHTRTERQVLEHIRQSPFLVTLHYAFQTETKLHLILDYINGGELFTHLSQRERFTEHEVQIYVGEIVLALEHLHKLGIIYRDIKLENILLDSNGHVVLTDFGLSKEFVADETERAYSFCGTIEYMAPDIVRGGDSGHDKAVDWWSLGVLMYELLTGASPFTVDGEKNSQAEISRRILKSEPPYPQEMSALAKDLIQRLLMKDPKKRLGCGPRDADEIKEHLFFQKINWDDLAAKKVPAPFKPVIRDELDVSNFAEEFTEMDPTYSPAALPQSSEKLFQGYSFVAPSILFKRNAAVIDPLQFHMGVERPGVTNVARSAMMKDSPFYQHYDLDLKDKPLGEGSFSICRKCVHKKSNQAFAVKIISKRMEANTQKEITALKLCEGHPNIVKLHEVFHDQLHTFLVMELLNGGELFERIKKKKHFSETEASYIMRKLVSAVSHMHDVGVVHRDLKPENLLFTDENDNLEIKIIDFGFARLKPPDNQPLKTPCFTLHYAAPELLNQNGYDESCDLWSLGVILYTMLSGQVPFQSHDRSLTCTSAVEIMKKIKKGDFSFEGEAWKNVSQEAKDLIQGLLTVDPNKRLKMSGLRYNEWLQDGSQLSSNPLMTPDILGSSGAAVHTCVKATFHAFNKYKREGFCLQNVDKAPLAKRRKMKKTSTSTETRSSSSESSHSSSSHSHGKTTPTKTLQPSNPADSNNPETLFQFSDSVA

[12] = biological target: Serine/threonine-protein kinase RIO3 (Homo sapiens) (UniProt O14730); test: Binding affinity to wild-type human full length RIOK3 (M1 to E519 residues) expressed in bacterial expression system assessed as residual binding level at 1 uM by Kinomescan method relative to control
[13] = biological target: Serine/threonine-protein kinase Nek4 (Homo sapiens) (UniProt P51957); test: Binding affinity to wild-type human full length NEK4 (M1 to F841 residues) expressed in mammalian expression system assessed as residual binding level at 1 uM by Kinomescan method relative to control
Serine/threonine-protein kinase Nek4 (Homo sapiens), sequence (P51957 whole entry, looked up, the tested form may be a part): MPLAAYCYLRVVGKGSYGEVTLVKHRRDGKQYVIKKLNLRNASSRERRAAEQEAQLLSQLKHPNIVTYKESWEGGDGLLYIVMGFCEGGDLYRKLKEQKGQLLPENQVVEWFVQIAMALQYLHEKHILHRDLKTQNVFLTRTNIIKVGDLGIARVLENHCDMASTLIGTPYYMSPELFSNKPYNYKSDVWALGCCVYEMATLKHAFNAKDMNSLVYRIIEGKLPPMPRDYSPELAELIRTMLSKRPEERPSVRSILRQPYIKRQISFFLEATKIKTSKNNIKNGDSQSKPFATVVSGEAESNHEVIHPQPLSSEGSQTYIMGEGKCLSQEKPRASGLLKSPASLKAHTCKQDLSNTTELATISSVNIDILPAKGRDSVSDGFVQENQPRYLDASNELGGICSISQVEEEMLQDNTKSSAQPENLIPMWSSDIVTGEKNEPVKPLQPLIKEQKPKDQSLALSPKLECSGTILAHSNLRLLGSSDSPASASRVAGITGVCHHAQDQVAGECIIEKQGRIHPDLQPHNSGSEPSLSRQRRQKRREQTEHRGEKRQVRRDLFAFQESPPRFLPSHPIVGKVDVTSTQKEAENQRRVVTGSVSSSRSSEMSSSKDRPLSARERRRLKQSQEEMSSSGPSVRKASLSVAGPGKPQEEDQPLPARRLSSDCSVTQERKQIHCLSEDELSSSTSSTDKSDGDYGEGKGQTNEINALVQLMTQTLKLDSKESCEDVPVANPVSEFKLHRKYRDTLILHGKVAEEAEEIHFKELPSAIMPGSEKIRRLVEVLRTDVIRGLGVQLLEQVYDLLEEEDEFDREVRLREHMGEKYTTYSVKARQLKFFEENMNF

[14] = biological target: Serine/threonine-protein kinase D3 (Homo sapiens) (UniProt O94806); test: Binding affinity to wild-type human partial length PRKD3 (S543 to E863 residues) expressed in bacterial expression system assessed as residual binding level at 1 uM by Kinomescan method relative to control
[15] = biological target: Serine/threonine-protein kinase 4 (Homo sapiens) (UniProt Q13043); test: Binding affinity to wild-type human full length MST1 (M1 to F487 residues) expressed in bacterial expression system assessed as residual binding level at 1 uM by Kinomescan method relative to control
[16] = biological target: CDK4/Cyclin D3 (Homo sapiens) (UniProt P11802+P30281); test: Binding affinity to wild-type human full length CDK4/cyclinD3 (M1 to E303 residues) expressed in mammalian expression system assessed as residual binding level at 1 uM by Kinomescan method relative to control
[17] = biological target: Non-receptor tyrosine-protein kinase TYK2 (Homo sapiens) (UniProt P29597); test: Binding affinity to wild-type human partial length TYK2 JH1 catalytic domain (V877 to C1187 residues) expressed in mammalian expression system assessed as residual binding level at 1 uM by Kinomescan method relative to control
[18] = biological target: Casein kinase I isoform gamma-1 (Homo sapiens) (UniProt Q9HCP0); test: Binding affinity to wild-type human partial length CSNK1G1 (T15 to S353 residues) expressed in bacterial expression system assessed as residual binding level at 1 uM by Kinomescan method relative to control
[19] = biological target: Activin receptor type-1-like (Homo sapiens) (UniProt P37023); test: Binding affinity to wild-type human ACVRL1 (L164 to Q503 residues) expressed in bacterial expression system assessed as residual binding level at 1 uM by Kinomescan method relative to control
[20] = biological target: Ribosomal protein S6 kinase alpha-1 (Homo sapiens) (UniProt Q15418); test: Binding affinity to wild-type human partial length C-terminal RSK1 kinase domain 2 (P360 to L681 residues) expressed in bacterial expression system assessed as residual binding level at 1 uM by Kinomescan method relative to control
[21] = biological target: Serine/threonine-protein kinase Nek1 (Homo sapiens) (UniProt Q96PY6); test: Binding affinity to wild-type human partial length NEK1 (M1 to K278 residues) expressed in bacterial expression system assessed as residual binding level at 1 uM by Kinomescan method relative to control
[22] = biological target: Activin receptor type-2B (Homo sapiens) (UniProt Q13705); test: Binding affinity to wild-type human ACVR2B (H169 to D504 residues) expressed in bacterial expression system assessed as residual binding level at 1 uM by Kinomescan method relative to control
[23] = biological target: Serine/threonine-protein kinase Chk2 (Homo sapiens) (UniProt O96017); test: Binding affinity to wild-type human partial length CHEK2 (S253 to E574 residues) expressed in bacterial expression system assessed as residual binding level at 1 uM by Kinomescan method relative to control
[24] = biological target: RAC-beta serine/threonine-protein kinase (Homo sapiens) (UniProt P31751); test: Binding affinity to wild-type human partial length AKT2 expressed in bacterial expression system assessed as residual binding level at 1 uM by Kinomescan method relative to control

## CC(C)Nc1sc(C(=O)c2ccc(Cl)s2)c(N)c1C#N
[1]
  Activity: 57%
[2]
  Activity: 100%
[3]
  Activity: 79%
[4]
  Activity: 79%
[5]
  Activity: 100%
[6]
  Activity: 100%
[7]
  Activity: 100%
[8]
  Activity: 98%
[9]
  Activity: 80%
[10]
  Activity: 100%
[11]
  Activity: 77%
[12]
  Activity: 38%
[13]
  Activity: 80%
[14]
  Activity: 62%
[15]
  Activity: 100%
[16]
  Activity: 100%
[17]
  Activity: 100%
[18]
  Activity: 95%
[19]
  Activity: 100%
[20]
  Activity: 85%
[21]
  Activity: 79%
[22]
  Activity: 92%
[23]
  Activity: 84%
[24]
  Activity: 93%
